In ChEMBL document CHEMBL3400117, “2-Aminophenanthroline dimer stabilized the C-C mismatched duplex DNA” (Bioorg Med Chem, 2015):

Legend:
[1] = Binding affinity to 5'-CTAACTGAATG-3'/3'-GATTGGCTTAC-5' duplex DNA (unknown origin) in sodium cacodylate buffer assessed as change in melting temperature at 10 uM at pH 7
[2] = Binding affinity to 5'-CTAACAGAATG-3'/3'-GATTGACTTAC-5' duplex DNA (unknown origin) in sodium cacodylate buffer assessed as change in melting temperature at 10 uM at pH 7
[3] = Binding affinity to 5'-CTAACTGAATG-3'/3'-GATTGCCTTAC-5' duplex DNA (unknown origin) in sodium cacodylate buffer assessed as change in melting temperature at 10 uM at pH 7
[4] = Binding affinity to 5'-CTAACGGAATG-3'/3'-GATTGGCTTAC-5' duplex DNA (unknown origin) in sodium cacodylate buffer assessed as change in melting temperature at 10 uM at pH 7
[5] = Binding affinity to 5'-CTAACAGAATG-3'/3'-GATTGGCTTAC-5' duplex DNA (unknown origin) in sodium cacodylate buffer assessed as change in melting temperature at 10 uM at pH 7
[6] = Binding affinity to 5'-CTAACCGAATG-3'/3'-GATTGCCTTAC-5' duplex DNA (unknown origin) in sodium cacodylate buffer assessed as change in melting temperature at 10 uM at pH 7
[7] = Binding affinity to 5'-CTAACCGAATG-3'/3'-GATTGGCTTAC-5' duplex DNA (unknown origin) in sodium cacodylate buffer assessed as change in melting temperature at 10 uM at pH 7
[8] = Binding affinity to 5'-CTAACTGAATG-3'/3'-GATTGTCTTAC-5' duplex DNA (unknown origin) in sodium cacodylate buffer assessed as change in melting temperature at 10 uM at pH 7
[9] = Binding affinity to 5'-CTAACAGAATG-3'/3'-GATTGCCTTAC-5' duplex DNA (unknown origin) in sodium cacodylate buffer assessed as change in melting temperature at 10 uM at pH 7
[10] = Binding affinity to 5'-CTAACTGAATG-3'/3'-GATTGACTTAC-5' duplex DNA (unknown origin) in sodium cacodylate buffer assessed as change in melting temperature at 10 uM at pH 7
[11] = Binding affinity to 5'-GCTAAACTAATGA-3'/3'-CGATTTCATTACT-5' duplex DNA (unknown origin) assessed as change in melting temperature
[12] = Binding affinity to 5'-GCTAAGCCAATGA-3'/3'-CGATTCCGTTACT-5' duplex DNA (unknown origin) assessed as change in melting temperature
[13] = Binding affinity to 5'-GCTAACCTAATGA-3'/3'-CGATTGCATTACT-5' duplex DNA (unknown origin) assessed as change in melting temperature
[14] = Binding affinity to 5'-CTAACCGAATG-3'/3'-GATTGCCTTAC-5' duplex DNA (unknown origin) in sodium cacodylate buffer assessed as change in melting temperature at pH 7
[15] = Binding affinity to 5'-GCTAAGCAAATGA-3'/3'-CGATTCCTTTACT-5' duplex DNA (unknown origin) assessed as change in melting temperature
[16] = Binding affinity to 5'-GCTAAGCTAATGA-3'/3'-CGATTCCATTACT-5' duplex DNA (unknown origin) assessed as change in melting temperature
[17] = Binding affinity to 5'-GCTAAACAAATGA-3'/3'-CGATTTCTTTACT-5' duplex DNA (unknown origin) assessed as change in melting temperature
[18] = Binding affinity to 5'-GCTAACCCAATGA-3'/3'-CGATTGCGTTACT-5' duplex DNA (unknown origin) assessed as change in melting temperature
[19] = Binding affinity to 5'-GCTAACCAAATGA-3'/3'-CGATTGCTTTACT-5' duplex DNA (unknown origin) assessed as change in melting temperature
[20] = Binding affinity to 5'-GCTAACCGAATGA-3'/3'-CGATTGCCTTACT-5' duplex DNA (unknown origin) assessed as change in melting temperature
[21] = Binding affinity to 5'-GCTAATCAAATGA-3'/3'-CGATTACTTTACT-5' duplex DNA (unknown origin) assessed as change in melting temperature
[22] = Binding affinity to 5'-TCCAG_GCAAC-3'/3'-AGGTCACGTTG-5' duplex DNA (unknown origin) in sodium cacodylate buffer assessed as change in melting temperature at 20 uM at pH 7
[23] = Binding affinity to 5'-TCCAG_GCAAC-3'/3'-AGGTCTCGTTG-5' duplex DNA (unknown origin) in sodium cacodylate buffer assessed as change in melting temperature at 20 uM at pH 7
[24] = Binding affinity to 5'-TCCAG_GCAAC-3'/3'-AGGTCGCGTTG-5' duplex DNA (unknown origin) in sodium cacodylate buffer assessed as change in melting temperature at 20 uM at pH 7
[25] = Binding affinity to 5'-TCCAGGCAAC-3'/3'-AGGTCCGTTG-5' duplex DNA (unknown origin) in sodium cacodylate buffer assessed as change in melting temperature at 20 uM at pH 7
[26] = Binding affinity to 5'-TCCAG_GCAAC-3'/3'-AGGTCCCGTTG-5' duplex DNA (unknown origin) in sodium cacodylate buffer assessed as change in melting temperature at 20 uM at pH 7

Row | ΔTm [1] [°C] | ΔTm [2] [°C] | ΔTm [3] [°C] | ΔTm [4] [°C] | ΔTm [5] [°C] | ΔTm [6] [°C] | ΔTm [7] [°C] | ΔTm [8] [°C] | ΔTm [9] [°C] | ΔTm [10] [°C] | SMILES | other results
1 | 0.1 | 0 | 2.3 | 0.3 | -0.2 | 2.6 | 0.3 | 1.5 | 0.4 | -0.1 | O=C(CCNCCC(=O)Nc1ccc2ccc3cccnc3c2n1)Nc1ccc2ccccc2n1 | 
2 | 0.3 | 2.1 | 4.4 | 1.4 | 1.5 | 7.8 | 0.3 | 1.4 | 4.4 | 0.4 | O=C(CCNCCC(=O)Nc1ccc2ccc3cccnc3c2n1)Nc1ccc2ccc3cccnc3c2n1 | ΔTm [11]: 5.7 °C; ΔTm [12]: 6.5 °C; ΔTm [13]: 5.6 °C; Activity [14]: Dose-dependent effect; ΔTm [15]: 4.2 °C; ΔTm [16]: 5.6 °C; ΔTm [17]: 4 °C; ΔTm [18]: 4.7 °C; ΔTm [19]: 3.8 °C; ΔTm [20]: 4 °C; ΔTm [21]: 4.4 °C
3 | 1.3 | 1.3 | 0.4 | 0.8 | 1.2 | 1.6 | 0.6 | 1.3 | 0.5 | 0.9 | NCCC(=O)Nc1ccc2ccc3cccnc3c2n1 | ΔTm [22]: 3.4 °C; ΔTm [23]: 3.6 °C; ΔTm [24]: 3 °C; ΔTm [25]: 0.2 °C; ΔTm [26]: 6 °C
4 | -0.5 | -0.5 | 0.7 | -0.2 | -0.4 | 2.6 | 0.2 | 0.2 | 1.6 | -0.1 | O=C(CCNCCC(=O)Nc1ccc2ccccc2n1)Nc1ccc2ccccc2n1 | 
